Measured values as given in paper PMC9088392 (RSC Advances, 2022).

Target: T1, PaER (Ogataea polymorpha, UniProt A0A1B7SQN2)
T1 sequence (A0A1B7SQN2 1-402): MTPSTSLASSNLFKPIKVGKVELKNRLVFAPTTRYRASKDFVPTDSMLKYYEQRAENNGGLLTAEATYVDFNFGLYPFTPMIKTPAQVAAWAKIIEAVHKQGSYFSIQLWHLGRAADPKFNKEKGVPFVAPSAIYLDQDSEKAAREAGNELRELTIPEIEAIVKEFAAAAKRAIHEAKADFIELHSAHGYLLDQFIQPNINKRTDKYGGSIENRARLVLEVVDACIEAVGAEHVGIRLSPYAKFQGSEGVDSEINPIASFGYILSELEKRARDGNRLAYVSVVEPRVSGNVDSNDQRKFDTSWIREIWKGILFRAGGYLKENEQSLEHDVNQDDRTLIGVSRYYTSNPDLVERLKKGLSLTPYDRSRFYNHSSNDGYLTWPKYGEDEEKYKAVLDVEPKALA
Test: flavin released from purified enzyme by heat, RP-HPLC
Type: binding
Settings: non-covalent flavin co-purified with the enzyme

## Cc1cc2nc3c(=O)[nH]c(=O)nc-3n(C[C@H](O)[C@H](O)[C@H](O)COP(=O)(O)O)c2cc1C [FMN]
  flavin released from purified enzyme by heat, RP-HPLC: yellow color as expected for FMN-containing protein and was also confirmed by HPLC
